Among the data in the METLIN SMRT retention time set (Domingo-Almenara et al. 2019) are RP-LC retention time values, retold here.

Each structure is given as a SMILES string.

A short description of this series: gradient 5% acetonitrile 3 min, to 50% in 2 min, to 85% in 15 min, held 3 min, 100 µL/min. The following applies: column: Zorbax Extend-C18 2.1 x 50 mm; eluents: water / acetonitrile, 0.1% formic acid. In short, it runs like this: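 Each retention time is based on an adduct peak selected computationally and verified by manual inspection. Measurements used HPLC–quadrupole time-of-flight mass spectrometry in positive and negative ionization mode on mixtures of ~100 pure standards. Chromatography ran on a Zorbax Extend-C18 column (2.1 × 50 mm, 1.8 μm) at 100 μL/min with water and acetonitrile, each containing 0.1% formic acid, and dead and dwell volumes of 40 μL and 900 μL.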
`CCOc1ccccc1NC(=O)N1CCCC1c1nc(-c2ccccc2OC)no1` (centres undefined) showed an RP-LC retention time of 809 s. Molecule `COC(=O)c1ccccc1S(=O)(=O)N1CCc2c(c(-c3nnc(-c4ccccc4)o3)nn2C)C1` showed an RP-LC retention time of 907 s. `CCC(C)(C)NS(=O)(=O)c1cccc(-c2nc(-c3ccccc3)no2)c1` displayed an RP-LC retention time of 1230 s. Under `O=c1n(Cc2ccccc2)nc2ccc(S(=O)(=O)N3CCCC3)cn12` stands 675 s. The molecule `O=C(NCc1cccc(F)c1)C1c2ccccc2CCN1C(=O)C1CC1` (centres undefined) yielded an RP-LC retention time of 840 s. On to `O=C(O)CCC1CCN(C(=O)c2ccccc2Cl)CC1`, for which the RP-LC retention time is 677 s.

The molecule `Cc1ccc(Nc2c(-c3ccc(Br)cc3)nc3cnccn23)c(C)c1` yielded an RP-LC retention time of 1170 s.

Take `CC1CCC2(CC1)NC(=O)N(CC(=O)NCc1ccccc1)C2=O` (centres undefined): the RP-LC retention time worked out at 784 s. Turning to `CCCc1nc(-c2ccccc2)oc1CC(=O)Nc1cccc(Cl)c1C`, the RP-LC retention time came out at 1080 s. Then `CCCNC(=O)Cn1ccn2nc(-c3ccccc3)c(CO)c2c1=O`, with 684 s; and `COc1ccccc1CNC(=O)C1CCN(Cc2cn(C)c3ccc(Cl)cc23)CC1`, with 714 s; and `Cc1[nH]nc(-c2c(C)sc(C)c2S(=O)(=O)NCCCc2ccccc2)c1C`, with 1130 s. Under `COc1cccc(OC)c1-c1cc(C(=O)NC2(C(=O)O)C3CC4CC(C3)CC2C4)nn1-c1ccc(C(=O)N(C)CCCN(C)C)cc1C(C)C` (centres undefined) stands 860 s; under `Cc1ccccc1NC(=O)C1CCN(S(=O)(=O)c2cc(-c3noc(C4CCC4)n3)cs2)CC1`, 1060 s; under `CCc1noc(-c2ccc(-n3ncc(C(=O)N4CCSCC4)c3C)nc2)n1`, 893 s.

As for `COCC(=O)NC1CCC12CCN(S(=O)(=O)C(C)C)CC2` (centres undefined), the RP-LC retention time amounted to 682 s. Molecule `Cc1ccc(CNC(=O)C2CCCN(c3nc4c(s3)c(C)nn4-c3ccc(F)cc3)C2)o1` (centres undefined) yielded an RP-LC retention time of 1100 s. Then `COc1ccc(CNC(=O)c2ccc3c(=O)n(Cc4ccccc4)c(N4CCCC4)nc3c2)cc1`, with 956 s; and `CCOC(=O)c1c(C)c(CCC(=O)NCc2cn[nH]c2C)n(C)c1C`, with 663 s; and `O=C(CCc1nc2cccnc2n1-c1ccccc1)NCCc1c[nH]c2ccccc12`, with 706 s. Under `O=C(C1=CN(c2ccc(C(F)(F)F)cc2)c2cc(F)ccc2S1(=O)=O)N1CCOCC1` stands 875 s; under `CCCn1c(=O)c2cc(C(=O)NCc3ccc(C)cc3)nn2c2ccccc21`, 1030 s. Turning to `COc1ccccc1N1CCN(CCN(C(=O)C2CCCCC2)c2ccccn2)CC1`, the RP-LC retention time came out at 816 s. Turning to `Cc1ccc(N2CCC(NC(=O)Nc3cc(Cl)ccc3C)C2=O)cc1` (centres undefined), the RP-LC retention time came out at 956 s. Consider `CCC(CC)NC(=O)CCC1CCN(c2cc(NC3CC3)ncn2)CC1`, for which the RP-LC retention time is 654 s. For the molecule `CCN(CC)CCOC(=O)c1cc(Cl)c(N)cc1OC`, the RP-LC retention time came out at 647 s. Then `COc1ccc(-c2noc(CN3N=NC4C(=O)N(c5ccc6c(c5)CCC6)C(=O)C43)n2)c(OC)c1` (centres undefined), with 959 s; and `Nc1nc(SCCc2ccccc2)c2[nH]cnc2n1`, with 675 s; and `Cc1nc2cc(-c3noc(CNC(=O)Cc4ccc(Cl)cc4)n3)ccc2n(C2CCCC2)c1=O`, with 1020 s. Then `COC(=O)c1cc2ccsc2n1Cc1ccccc1C#N`, with 1030 s. Then `COc1cccc2sc(N3CCCCC3)nc12`, with 821 s; and `O=C(Cn1cnc2nc(N3CCC(C(=O)NC4CC4)CC3)sc2c1=O)Nc1cccc(F)c1`, with 655 s; and `CC1(C)CC(=O)c2cn(-c3ccc(Cl)cc3)c(=O)c(C(=O)N3CCC(N4CCCCC4)CC3)c2C1`, with 667 s. In turn, `CCCn1nnc2cc(-c3noc(CNC(=O)c4ccccc4)n3)ccc21` yielded an RP-LC retention time of 624 s. In turn, `CS(=O)(=O)N1CCC(OC2CCN(C(=O)Nc3ccccc3Cl)CC2)CC1` had an RP-LC retention time of 785 s. For `COc1cc(Cc2nc(-c3ccc4nnc(C)n4c3)no2)cc(OC)c1`, the RP-LC retention time is 796 s. The molecule `CC1(C)O[C@@H]2C[C@H]3[C@@H]4C[C@H](F)C5=CC(=O)C=C[C@]5(C)[C@@]4(F)[C@@H](O)C[C@]3(C)[C@]2(C(=O)CO)O1` displayed an RP-LC retention time of 921 s. `COc1ccc2c(c1)C1(CCN(C(=O)Cc3ccc(OC)c(Cl)c3)C1)C(=O)N2` (centres undefined) had an RP-LC retention time of 745 s. Under `Cc1noc(CNC(=O)C2CCN(C(=O)Cc3ccccc3Cl)CC2)n1` stands 590 s; under `c1ccc(-c2nc3cc(-c4noc(C5CC5)n4)ccc3o2)cc1`, 1230 s; under `CCOC(=O)c1cn(CC(=O)NC2CCCC2)c2nc(C)ccc2c1=O`, 686 s.

The molecule `O=C(NCCc1ccco1)c1ccc2ccnc(N3CCN(c4ccccc4)CC3)c2c1` gave an RP-LC retention time of 772 s.

The molecule `COc1ccc(-c2noc(Cc3nnc(-c4ccc(Cl)cc4)o3)n2)cc1F` registered an RP-LC retention time of 1060 s.

The molecule `CCc1nncn1C1CCN(S(=O)(=O)c2ccc(F)c(C)c2)CC1` displayed an RP-LC retention time of 715 s.

`O=C(NCC1CCCO1)c1ccc2ncnc(N3CCCC3)c2c1` (centres undefined) displayed an RP-LC retention time of 575 s.

`COCCN1C(=O)[C@H]2CN(Cc3ccc(F)c(Br)c3)C[C@H]2C1=O`: the RP-LC retention time turned out to be 680 s.

Molecule `COc1ccc(S(=O)(=O)Nc2cc(-c3cn4cccc(C)c4n3)ccc2C)cc1C` displayed an RP-LC retention time of 707 s.

The molecule `CCOC(=O)c1noc2ncnc(N3CCc4ccccc4C3)c12` gave an RP-LC retention time of 1010 s. Then `O=C(Cn1nc2n(c1=O)CCCC2)Nc1ccc(Cl)cc1`, with 688 s; and `COc1ccc(-c2noc(C(C)NC(C)=O)n2)cc1` (centres undefined), with 680 s.

Turning to `Cc1ccc(-c2ncccc2CNS(=O)(=O)c2cccs2)cc1`, the RP-LC retention time was 675 s. `CSCc1csc(NC(=O)C2CCCC2)n1`: the RP-LC retention time came out at 782 s.

Consider `O=C(CN1CCN(C(=O)Nc2ccc(Cl)cc2)CC1=O)NCc1ccco1`, for which the RP-LC retention time was 685 s. In turn, `CCC(C)NC(=O)Cn1c(=O)c2cnc(-c3ccc(Cl)cc3)nc2n(CC)c1=O` (centres undefined) returned an RP-LC retention time of 740 s. `S=C1SCN(CCc2ccccc2)CN1CCc1ccccc1` yielded an RP-LC retention time of 1210 s. Regarding `CC1CCN(C(=O)c2ccc(CN3C(=O)C4CCCN4C(=O)c4ccccc43)cc2)CC1` (centres undefined), the RP-LC retention time was 790 s. In turn, `O=C(NCCc1c[nH]c2ccccc12)C1CCCN1c1nnc(N2CCCC2=O)s1` (centres undefined) gave an RP-LC retention time of 690 s. Under `CC(=O)N1CCCC1c1nc2ccccc2n1CC(=O)N1CCCC1` (centres undefined) stands 574 s.

With `CCOc1ccc(C(C)NC(=O)c2c(C)sc3ccn(CC)c(=O)c23)cc1` (centres undefined), the RP-LC retention time turned out to be 872 s.
